Results: paper PMC9487510, “A Novel Oral GyrB/ParE Dual Binding Inhibitor Effective against Multidrug-Resistant Neisseria gonorrhoeae and Other High-Threat Pathogens” (Antimicrobial Agents and Chemotherapy, 2022)
In brackets after ≈: the same amount, converted by molar mass.

Tested on: N. gonorrhoeae clinical isolates
Experiment: MIC, agar dilution (CLSI)
Assay type: cell-based, Neisseria gonorrhoeae

CN(C)[C@@H]1C(O)=C(C(N)=O)C(=O)[C@@]2(O)C(O)=C3C(=O)c4c(O)cccc4[C@@](C)(O)[C@H]3C[C@@H]12 [Tet, tetracycline]
MIC range (96 clinical isolates): 0.063 to 16 µg/mL
MIC50 (Neisseria gonorrhoeae): 1 µg/mL (≈ 2.25 µM)
MIC90 (Neisseria gonorrhoeae): 1 µg/mL (≈ 2.25 µM)
MIC (Neisseria gonorrhoeae, strain CDC1 (GCREF2012 016)): 2 µg/mL (≈ 4.5 µM)
MIC (Neisseria gonorrhoeae, strain CDC2 (GCREF2012 045)): 1 µg/mL (≈ 2.25 µM)
MIC (Neisseria gonorrhoeae, strain CDC3 (GCREF2013 013)): 1 µg/mL (≈ 2.25 µM)
MIC (Neisseria gonorrhoeae, strain CDC4 (GCREF2013 030)): 0.5 µg/mL (≈ 1.13 µM)
MIC (Neisseria gonorrhoeae, strain CDC5 (GCREF2012 001)): 1 µg/mL (≈ 2.25 µM)
MIC (Neisseria gonorrhoeae, strain CDC6 (GCREF2012 002)): 1 µg/mL (≈ 2.25 µM)
MIC (Neisseria gonorrhoeae, strain CDC8 (GCREF2012 004)): 1 µg/mL (≈ 2.25 µM)
MIC (Neisseria gonorrhoeae, strain CDC9 (GCREF2012 005)): 1 µg/mL (≈ 2.25 µM)
MIC (Neisseria gonorrhoeae, strain CDC10 (GCREF2012 006)): 1 µg/mL (≈ 2.25 µM)
MIC (Neisseria gonorrhoeae, strain CDC11 (GCREF2012 007)): 1 µg/mL (≈ 2.25 µM)
MIC (Neisseria gonorrhoeae, strain CDC12 (GCREF2012 008)): 1 µg/mL (≈ 2.25 µM)
MIC (Neisseria gonorrhoeae, strain CDC13 (GCREF2012 009)): 1 µg/mL (≈ 2.25 µM)
MIC (Neisseria gonorrhoeae, strain CDC14 (GCREF2012 010)): 1 µg/mL (≈ 2.25 µM)
MIC (Neisseria gonorrhoeae, strain CDC15 (GCREF2012 011)): 0.5 µg/mL (≈ 1.13 µM)
MIC (Neisseria gonorrhoeae, strain CDC16 (GCREF2012 012)): 1 µg/mL (≈ 2.25 µM)
MIC (Neisseria gonorrhoeae, strain CDC18 (GCREF2012 014)): 1 µg/mL (≈ 2.25 µM)
MIC (Neisseria gonorrhoeae, strain CDC19 (GCREF2012 015)): 0.5 µg/mL (≈ 1.13 µM)
MIC (Neisseria gonorrhoeae, strain CDC20 (GCREF2012 017)): 1 µg/mL (≈ 2.25 µM)
MIC (Neisseria gonorrhoeae, strain CDC21 (GCREF2012 018)): 1 µg/mL (≈ 2.25 µM)
MIC (Neisseria gonorrhoeae, strain CDC22 (GCREF2012 019)): 1 µg/mL (≈ 2.25 µM)
MIC (Neisseria gonorrhoeae, strain CDC23 (GCREF2012 020)): 1 µg/mL (≈ 2.25 µM)
MIC (Neisseria gonorrhoeae, strain CDC24 (GCREF2012 021)): 1 µg/mL (≈ 2.25 µM)
MIC (Neisseria gonorrhoeae, strain CDC25 (GCREF2012 022)): 1 µg/mL (≈ 2.25 µM)
MIC (Neisseria gonorrhoeae, strain CDC26 (GCREF2012 023)): 0.5 µg/mL (≈ 1.13 µM)
MIC (Neisseria gonorrhoeae, strain CDC27 (GCREF2012 024)): 1 µg/mL (≈ 2.25 µM)
MIC (Neisseria gonorrhoeae, strain CDC28 (GCREF2012 025)): 1 µg/mL (≈ 2.25 µM)
MIC (Neisseria gonorrhoeae, strain CDC29 (GCREF2012 026)): 1 µg/mL (≈ 2.25 µM)
MIC (Neisseria gonorrhoeae, strain CDC30 (GCREF2012 027)): 1 µg/mL (≈ 2.25 µM)
MIC (Neisseria gonorrhoeae, strain CDC31 (GCREF2012 028)): 2 µg/mL (≈ 4.5 µM)
MIC (Neisseria gonorrhoeae, strain CDC32 (GCREF2012 029)): 0.5 µg/mL (≈ 1.13 µM)
MIC (Neisseria gonorrhoeae, strain CDC33 (GCREF2012 030)): 0.5 µg/mL (≈ 1.13 µM)
MIC (Neisseria gonorrhoeae, strain CDC34 (GCREF2012 031)): 1 µg/mL (≈ 2.25 µM)
MIC (Neisseria gonorrhoeae, strain CDC35 (GCREF2012 032)): 2 µg/mL (≈ 4.5 µM)
MIC (Neisseria gonorrhoeae, strain CDC36 (GCREF2012 033)): 1 µg/mL (≈ 2.25 µM)
MIC (Neisseria gonorrhoeae, strain CDC37 (GCREF2012 034)): 1 µg/mL (≈ 2.25 µM)
MIC (Neisseria gonorrhoeae, strain CDC38 (GCREF2012 035)): 1 µg/mL (≈ 2.25 µM)
MIC (Neisseria gonorrhoeae, strain CDC39 (GCREF2012 036)): 1 µg/mL (≈ 2.25 µM)
MIC (Neisseria gonorrhoeae, strain CDC40 (GCREF2012 037)): 1 µg/mL (≈ 2.25 µM)
MIC (Neisseria gonorrhoeae, strain CDC41 (GCREF2012 038)): 1 µg/mL (≈ 2.25 µM)
MIC (Neisseria gonorrhoeae, strain CDC42 (GCREF2012 039)): 2 µg/mL (≈ 4.5 µM)
MIC (Neisseria gonorrhoeae, strain CDC43 (GCREF2012 040)): 2 µg/mL (≈ 4.5 µM)
MIC (Neisseria gonorrhoeae, strain CDC45 (GCREF2012 042)): 2 µg/mL (≈ 4.5 µM)
MIC (Neisseria gonorrhoeae, strain CDC46 (GCREF2012 043)): 1 µg/mL (≈ 2.25 µM)
MIC (Neisseria gonorrhoeae, strain CDC47 (GCREF2012 044)): 1 µg/mL (≈ 2.25 µM)
MIC (Neisseria gonorrhoeae, strain CDC48 (GCREF2012 046)): 1 µg/mL (≈ 2.25 µM)
MIC (Neisseria gonorrhoeae, strain CDC49 (GCREF2012 047)): 1 µg/mL (≈ 2.25 µM)
MIC (Neisseria gonorrhoeae, strain CDC50 (GCREF2012 048)): 1 µg/mL (≈ 2.25 µM)
MIC (Neisseria gonorrhoeae, strain CDC51 (GCREF2012 049)): 1 µg/mL (≈ 2.25 µM)
MIC (Neisseria gonorrhoeae, strain CDC52 (GCREF2012 050)): 1 µg/mL (≈ 2.25 µM)
MIC (Neisseria gonorrhoeae, strain CDC53 (GCREF2012 051)): 1 µg/mL (≈ 2.25 µM)
MIC (Neisseria gonorrhoeae, strain CDC54 (GCREF2012 052)): 1 µg/mL (≈ 2.25 µM)
MIC (Neisseria gonorrhoeae, strain CDC55 (GCREF2013 001)): 1 µg/mL (≈ 2.25 µM)
MIC (Neisseria gonorrhoeae, strain CDC56 (GCREF2013 002)): 1 µg/mL (≈ 2.25 µM)
MIC (Neisseria gonorrhoeae, strain CDC57 (GCREF2013 003)): 0.5 µg/mL (≈ 1.13 µM)
MIC (Neisseria gonorrhoeae, strain CDC58 (GCREF2013 004)): 1 µg/mL (≈ 2.25 µM)
MIC (Neisseria gonorrhoeae, strain CDC59 (GCREF2013 044)): 16 µg/mL (≈ 36 µM)
MIC (Neisseria gonorrhoeae, strain CDC60 (GCREF2013 005)): 1 µg/mL (≈ 2.25 µM)
MIC (Neisseria gonorrhoeae, strain CDC61 (GCREF2013 006)): 1 µg/mL (≈ 2.25 µM)
MIC (Neisseria gonorrhoeae, strain CDC62 (GCREF2013 007)): 0.5 µg/mL (≈ 1.13 µM)
MIC (Neisseria gonorrhoeae, strain CDC63 (GCREF2013 008)): 0.063 µg/mL (≈ 0.142 µM)
MIC (Neisseria gonorrhoeae, strain CDC64 (GCREF2013 009)): 1 µg/mL (≈ 2.25 µM)
MIC (Neisseria gonorrhoeae, strain CDC65 (GCREF2013 010)): 0.5 µg/mL (≈ 1.13 µM)
MIC (Neisseria gonorrhoeae, strain CDC66 (GCREF2013 011)): 0.5 µg/mL (≈ 1.13 µM)
MIC (Neisseria gonorrhoeae, strain CDC67 (GCREF2013 014)): 1 µg/mL (≈ 2.25 µM)
MIC (Neisseria gonorrhoeae, strain CDC68 (GCREF2013 016)): 1 µg/mL (≈ 2.25 µM)
MIC (Neisseria gonorrhoeae, strain CDC69 (GCREF2013 017)): 1 µg/mL (≈ 2.25 µM)
MIC (Neisseria gonorrhoeae, strain CDC70 (GCREF2013 018)): 1 µg/mL (≈ 2.25 µM)
MIC (Neisseria gonorrhoeae, strain CDC71 (GCREF2013 019)): 1 µg/mL (≈ 2.25 µM)
MIC (Neisseria gonorrhoeae, strain CDC72 (GCREF2013 020)): 1 µg/mL (≈ 2.25 µM)
MIC (Neisseria gonorrhoeae, strain CDC73 (GCREF2013 021)): 1 µg/mL (≈ 2.25 µM)
MIC (Neisseria gonorrhoeae, strain CDC74 (GCREF2013 022)): 1 µg/mL (≈ 2.25 µM)
MIC (Neisseria gonorrhoeae, strain CDC75 (GCREF2013 023)): 1 µg/mL (≈ 2.25 µM)
MIC (Neisseria gonorrhoeae, strain CDC76 (GCREF2013 024)): 1 µg/mL (≈ 2.25 µM)
MIC (Neisseria gonorrhoeae, strain CDC77 (GCREF2013 025)): 1 µg/mL (≈ 2.25 µM)
MIC (Neisseria gonorrhoeae, strain CDC78 (GCREF2013 026)): 1 µg/mL (≈ 2.25 µM)
MIC (Neisseria gonorrhoeae, strain CDC79 (GCREF2013 027)): 1 µg/mL (≈ 2.25 µM)
MIC (Neisseria gonorrhoeae, strain CDC80 (GCREF2013 028)): 1 µg/mL (≈ 2.25 µM)
MIC (Neisseria gonorrhoeae, strain CDC81 (GCREF2013 029)): 1 µg/mL (≈ 2.25 µM)
MIC (Neisseria gonorrhoeae, strain CDC82 (GCREF2013 031)): 0.5 µg/mL (≈ 1.13 µM)
MIC (Neisseria gonorrhoeae, strain CDC83 (GCREF2013 032)): 0.5 µg/mL (≈ 1.13 µM)
MIC (Neisseria gonorrhoeae, strain CDC84 (GCREF2013 033)): 0.5 µg/mL (≈ 1.13 µM)
MIC (Neisseria gonorrhoeae, strain CDC86 (GCREF2013 035)): 0.25 µg/mL (≈ 0.563 µM)
MIC (Neisseria gonorrhoeae, strain CDC87 (GCREF2013 036)): 1 µg/mL (≈ 2.25 µM)
MIC (Neisseria gonorrhoeae, strain CDC88 (GCREF2013 037)): 0.5 µg/mL (≈ 1.13 µM)
MIC (Neisseria gonorrhoeae, strain CDC89 (GCREF2013 038)): 1 µg/mL (≈ 2.25 µM)
MIC (Neisseria gonorrhoeae, strain CDC90 (GCREF2013 039)): 1 µg/mL (≈ 2.25 µM)
MIC (Neisseria gonorrhoeae, strain CDC91 (GCREF2013 040)): 1 µg/mL (≈ 2.25 µM)
MIC (Neisseria gonorrhoeae, strain CDC92 (GCREF2013 041)): 1 µg/mL (≈ 2.25 µM)
MIC (Neisseria gonorrhoeae, strain CDC93 (GCREF2013 042)): 1 µg/mL (≈ 2.25 µM)
MIC (Neisseria gonorrhoeae, strain CDC94 (GCREF2013 043)): 0.5 µg/mL (≈ 1.13 µM)
MIC (Neisseria gonorrhoeae, strain CDC95 (GCREF2013 045)): 1 µg/mL (≈ 2.25 µM)
MIC (Neisseria gonorrhoeae, strain CDC96 (GCREF2013 046)): 0.5 µg/mL (≈ 1.13 µM)
MIC (Neisseria gonorrhoeae, strain CDC97 (GCREF2013 047)): 1 µg/mL (≈ 2.25 µM)
MIC (Neisseria gonorrhoeae, strain CDC98 (GCREF2013 048)): 0.5 µg/mL (≈ 1.13 µM)
MIC (Neisseria gonorrhoeae, strain CDC99 (GCREF2013 012)): 0.5 µg/mL (≈ 1.13 µM)
MIC (Neisseria gonorrhoeae, strain CDC100 (GCREF2013 015)): 1 µg/mL (≈ 2.25 µM)
